Measurements: US8969331B2, “Treatment of skin and mucosal superficial wounds using adrenergic receptor agonists” (priority 2008, dated 2015)

System: small cuts and/or abrasions
Assay: topical application of epinephrine compositions to small cuts and/or abrasions
Assay type: in vivo
Settings: compositions containing from about 0.001 mg/ml to about 2.5 mg/ml, applied topically
[1] = compared with wounds untreated or treated with conventional methods

## CNC[C@H](O)c1ccc(O)c(O)c1 [epinephrine]
Assessed visually
  scab formation on treated skin areas: no scabs were formed visually
[1]
  control of bleeding: faster control of bleeding
  healing of small cuts and/or abrasions: promoted healing of small cuts and/or abrasions
